pIC50: −log10 of the molar value.
System: HL-60
Assay: Cytotoxicity against human HL60 cells
Format: functional, cell-based

SMILES | pIC50
C/C=C(\C)C(=O)O[C@H]1[C@@]2(C)C[C@@]3(OC(C)=O)[C@](C)([C@H]4CC[C@]5(C)C(=C4[C@H](OC(C)=O)[C@@]13OC(C)=O)[C@@H](OC(C)=O)C(=O)O[C@H]5c1ccoc1)[C@H]2CC(=O)OC [15-ACETYLTRICHAGMALIN E] | 4.68
C/C=C(\C)C(=O)O[C@H]1[C@@]2(C)C[C@@]3(O)[C@](C)([C@H]4CC[C@]5(C)C(=C4[C@H](OC(C)=O)[C@@]13O)[C@@H](OC(C)=O)C(=O)O[C@H]5c1ccoc1)[C@H]2CC(=O)OC [TRICHAGMALIN D] | 4.77

Source: ChEMBL document CHEMBL1687871, “Phragmalin- and mexicanolide-type limonoids from the leaves of Trichilia connaroides” (J Nat Prod, 2011)
